The subject of data set [1] is menschlichen Keratinozyten (HaCat). Put plainly: Inhibition of cell proliferation, neutral red (NR) method. As to conditions: Homo sapiens, read-out: NR-Methode *IC50. Type of data set: cell-based. The source says: (§1) Die Zellproliferation der Hautzellen wurde anhand der bekannten Neutralrotmethode untersucht. Die Zellschädigung wurde durch gleichzeitige Untersuchung der Freisetzung eines cytosolischen Enzyms, der Lactatdehydrogenase, zusätzlich bestimmt. In einigen Versuchen wurde auch die DNA-Synthese anhand der Inkorporation von ^3H-Thymidin mituntersucht.

Data set [2] is described as follows: Cytotoxicity, release of lactate dehydrogenase (LDH). Type of data set: cell-based, menschlichen. As to conditions: human.
From the text: as §1

Data set [3] has as its system menschlichen Keratinozyten (HaCat). Put plainly: DNA synthesis, 3H-thymidine incorporation. Type of data set: cell-based. The note with it: Homo sapiens; HaCat keratinocytes; influence on DNA synthesis; read-out: ^3H-Thymidin-Einbau.
From the text: as §1

Where [4] appears, read: HaCat keratinocytes, 50% inhibition of cell growth.

Molecules are shown by their SMILES. Converted amounts (≈) assume the structure as drawn. Where two headings read alike, the source gives them in different places.

As for `C[C@@H]1C[C@H]2[C@@H]3CCC4=CC(=O)C=C[C@]4(C)[C@@]3(F)[C@@H](O)C[C@]2(C)[C@@]1(O)C(=O)CO` [Dexamethason], the IC50 in data set [1] (HaCaT) came to 800 µg/mL (≈ 2.04 mM). This molecule gave a CC50 in data set [2] (hacat keratinocytes) of over 600 µg/mL.
Regarding `O=C(O)/C=C\C(=O)O` [Maleinsäure], in data set [1] (setting [4]), the IC50 was determined as 1700 µg/mL (≈ 14.6 mM). The molecule further had a CC50 in data set [2] (hacat keratinocytes) of over 1000 µg/mL.
In the case of `O=C(O)/C=C/C(=O)O` [Na-Fumarat, Natriumfumarat], in data set [1] (setting [4]), the IC50 was 4900 µg/mL (≈ 42.2 mM). This molecule had a CC50 in data set [2] (hacat keratinocytes) of over 10000 µg/mL.
Consider `O=C(O)c1ccccc1O` [Na-Salicylat, Natriumsalicylat], for which the IC50 in data set [1] (HaCaT) worked out at 1500 µg/mL (≈ 10.9 mM). Also, the CC50 in data set [2] (HaCat keratinocytes, measure of cytotoxicity, as concentration of the active substance, read-out: LDH-Freisetzung*) was over 2000 µg/mL.
For `O=Cc1ccccc1O` [Salicylaldehyd], in data set [1] (setting [4]), the IC50 stood at 34 µg/mL (≈ 0.278 mM). Further, the CC50 in data set [2] (hacat keratinocytes) is over 100 µg/mL.
`OCc1ccccc1O` [Salicylalkohol, 2-Hydroxybenzylalkohol]: the values for the IC50 in data set [1] (setting [4]) and in data set [3] were 780 µg/mL (≈ 6.28 mM) and 300 µg/mL (≈ 2.42 mM), respectively. Moreover, in data set [2] (hacat keratinocytes), the CC50 is over 600 µg/mL.

The record behind these values is patent EP0913150A1, “Combination of actives, viz. salicyl alcohol and fumaric acid and/or maleic acid, for the treatment of seborrheoic skin diseases, especially psoriasis” (Phytexpert, Pharm-Tox-Consulting GmbH, priority 1997, dated 1999).
